BindingDB's records for doi:10.3109/14756366.2012.681653 (Atatürk University, 2013)
Counter-ions that a name gives are not always drawn.

Target: Serum paraoxonase/arylesterase 1 (Homo sapiens, UniProt P27169)
Assay: PON Activity Assay
Experimental: PON activities were measured in the presence of different drug concentrations. Control activity was assumed to be 100% in the absence of inhibitor. Experiments of all compounds were tested in triplicate at each concentration used and Activity%-[Drug] graphs were drawn for each drug. Determination of Ki values was performed by using three different inhibitor concentrations. In these experiments, paraoxone was used as substrate at five different concentrations (0.15, 0.3, 0.45, 0.6, and 0.75 mM).

Serum paraoxonase/arylesterase 1, sequence (P27169 whole entry): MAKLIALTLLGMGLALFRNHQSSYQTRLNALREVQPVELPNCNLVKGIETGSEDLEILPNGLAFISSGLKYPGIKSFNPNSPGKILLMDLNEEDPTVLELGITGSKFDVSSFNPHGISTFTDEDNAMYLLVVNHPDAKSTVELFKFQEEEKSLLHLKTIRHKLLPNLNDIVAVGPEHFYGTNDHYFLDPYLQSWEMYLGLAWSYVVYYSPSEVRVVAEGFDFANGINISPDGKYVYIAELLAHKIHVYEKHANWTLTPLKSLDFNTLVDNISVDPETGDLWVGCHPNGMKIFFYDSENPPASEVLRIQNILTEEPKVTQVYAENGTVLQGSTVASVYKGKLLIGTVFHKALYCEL

| SMILES | Ki [mM] |
| --- | --- |
| CCC[C@@H]1C[C@@H](C(=O)N[C@@H]([C@H]2O[C@H](SC)[C@H](OP(=O)(O)O)[C@@H](O)[C@H]2O)[C@H](C)Cl)N(C)C1 [Clindamycin phosphate] | 35.8 |
| CN(C)[C@@H]1C(=O)C(C(N)=O)=C(O)[C@@]2(O)C(=O)C3=C(O)c4c(O)cccc4[C@@](C)(O)[C@H]3[C@H](O)[C@@H]12 [Oxytetracycline hydrochloride] | 0.2 |
| CN[C@H]1[C@@H](O[C@@H]2[C@@H](O[C@H]3[C@H](O)[C@@H](O)[C@H](N=C(N)N)[C@@H](O)[C@@H]3N=C(N)N)O[C@H](C)[C@@]2(O)C=O)O[C@H](CO)[C@@H](O)[C@@H]1O [Streptomycin sulfate] | 56.3 |

Further compounds by falling Ki, results first:

| Ki [mM] | SMILES |
| --- | --- |
| 18.3 | CCC[C@@H]1C[C@@H](C(=O)N[C@@H]([C@H]2O[C@H](SC)[C@H](O)[C@@H](O)[C@H]2O)[C@@H](C)O)N(C)C1 [(2S,4R)-N-((1R,2R)-2-hydroxy-1-((2R,3R,4S,5R,6R)-3,4,5-trihydroxy-6-(methylthio)-tetrahydro-2H-pyran-2-yl)propyl)-1-methyl-4-propylpyrrolidine-2-carboxamide] |
| 3.73 | CCN[C@@H]1C[C@H](N)[C@H](O[C@H]2OC(CN)=CC[C@H]2N)[C@H](O)[C@H]1O[C@H]1OC[C@](C)(O)[C@H](NC)[C@H]1O [Netilmycin sulfate] |
